In the NIST ThermoML archive (doi:10.1021/je9004849):

Details: Fluid (supercritical or subcritical phases), Buoyancy - hydrostatic balance with magnetic suspension - one sinker

C [methane]
Details	mass density [kg/m3]
298.14 K, 20012 kPa	157.172
298.14 K, 29958 kPa	212.508
298.14 K, 35056 kPa	232.422
298.14 K, 49959 kPa	273.189
298.14 K, 99874 kPa	342.269
298.14 K, 124934 kPa	363.139
298.14 K, 150062 kPa	380.039
298.14 K, 159617 kPa	385.731
298.14 K, 170054 kPa	391.531
298.14 K, 185333 kPa	399.489
298.14 K, 186931 kPa	400.257
298.14 K, 188059 kPa	400.837
298.15 K, 10010 kPa	76.08
298.15 K, 79980 kPa	321.098
298.16 K, 1012 kPa	6.665
298.16 K, 66961 kPa	303.605
298.19 K, 5009 kPa	35.316
298.25 K, 14994 kPa	118.506
305.23 K, 9993 kPa	72.932
305.23 K, 49968 kPa	267.232
305.23 K, 60012 kPa	287.019
305.23 K, 79855 kPa	316.163
305.23 K, 99904 kPa	337.939
305.23 K, 124930 kPa	359.159
305.23 K, 149862 kPa	376.248
305.24 K, 1002 kPa	6.404
305.24 K, 2000 kPa	13.031
305.24 K, 5001 kPa	34.173
305.24 K, 6897 kPa	48.435
305.24 K, 15006 kPa	113.44
305.24 K, 20696 kPa	155.024
305.24 K, 29976 kPa	205.443
305.24 K, 34563 kPa	223.779
305.24 K, 69988 kPa	302.917
338.04 K, 6905 kPa	42.093
338.05 K, 5000 kPa	29.983
338.05 K, 34473 kPa	195.446
338.06 K, 70001 kPa	280.639
338.07 K, 124895 kPa	341.685
338.07 K, 149542 kPa	359.787
338.08 K, 1004 kPa	5.782
338.08 K, 2004 kPa	11.667
338.08 K, 15026 kPa	95.246
338.08 K, 20687 kPa	130.132
338.08 K, 30005 kPa	177.38
338.08 K, 50031 kPa	241.969
338.08 K, 59971 kPa	263.229
338.09 K, 164905 kPa	369.665
338.1 K, 9969 kPa	62.054
338.1 K, 80310 kPa	295.61
338.11 K, 99908 kPa	318.744
338.12 K, 179829 kPa	378.164
399.94 K, 89964 kPa	274.637
399.97 K, 59973 kPa	225.951
399.98 K, 1002 kPa	4.86
399.98 K, 30014 kPa	141.158
399.99 K, 15027 kPa	74.789
400 K, 50037 kPa	203.469
400 K, 79920 kPa	260.652
400.01 K, 2001 kPa	9.744
400.01 K, 6915 kPa	34.195
400.01 K, 10002 kPa	49.746
400.02 K, 20675 kPa	101.642
400.02 K, 124882 kPa	312.062
400.02 K, 149627 kPa	332.136
400.03 K, 13795 kPa	68.723
400.04 K, 34510 kPa	157.64
400.04 K, 69978 kPa	244.725
400.07 K, 5005 kPa	24.61
400.09 K, 99984 kPa	286.8
450 K, 2009 kPa	8.61
450.01 K, 20697 kPa	87.478
450.01 K, 99932 kPa	264.608
450.02 K, 89981 kPa	251.923
450.02 K, 119918 kPa	286.376
450.03 K, 59975 kPa	202.137
450.03 K, 139476 kPa	304.187
450.05 K, 30002 kPa	121.791
450.06 K, 50036 kPa	179.955
450.06 K, 69966 kPa	221.073
450.08 K, 80008 kPa	237.571
450.09 K, 6886 kPa	29.741
450.12 K, 34492 kPa	136.647
